# Data reported in patent USRE37770E1, “Treatment of skin conditions by use of PPARα activators” (The Regents of the University of California, priority 1997, dated 2002).
# Assays:
# [1] = system: transglutaminase mRNA; experiment: Transglutaminase mRNA in keratinocytes by Northern Blot; type: cell-based, Human
# Experimental: (§1) Human keratinocyte cells were incubated in culture containing calcium at a concentration of 0.03 mM Ca^++ (a level that is too low to induce differentiation). Also included in the culture medium were clofibrate at 400 μM or ETYA at 10 μM and 20 μM, while separate cell cultures were maintained as controls with neither clofibrate nor ETYA. The production of mRNA for both involucrin and transglutaminase was measured at intervals over a 48-hour time period (0, 6, 12, 24, and 48 hours) by Northern Blot analysis. In each case, the lighter bars represent the control cells and the darker bars the cells incubated in the clofibrate-containing medium. The degree of mRNA generated is expressed as a percent of the control at zero hours.
# (§2) Human epidermis was isolated from newborn foreskins and keratinocytes were plated in serum-free keratinocyte growth medium (“KGM”; Clonetics, San Diego, Calif. USA), using conventional techniques. Cells were treated with either the test compounds in vehicle or vehicle alone (<0.1% ethanol) for 24 or 48 hours. The test compounds were obtained from Sigma Chemical Co. (St. Louis. Mo. USA) and were stored as 15 mM stock solutions at −20° C. Mevalonate was solubilized in sterile water.
# (§3) Total RNA was isolated by using TRIZOL (Sigma Chemical Co.), following the manufacturer's protocol. Ethanol-precipitate RNA pellets were suspended in sterile, diethylpyrocarbonate (DEPC)-treated water, and RNA was quantified by absorbance at 260 nm using the 260/280 nm ratio as an index of purity. RNA (15 μg per sample) was size fractionated through a 1% agarose gel containing 2.2 M formaldehyde. RNA integrity was visualized following acridine orange staining of the gel following electrophoresis. The RNA was transfered to a nylon membrane that was subsequently baked at 80° C. for 2 hours. Blots were hybridized with the appropriate ^32p-labeled probe overnight at 65° C. Washes were then performed in a solution containing 0.1% SSC and 0.1% sodium dedecyl sulfate (SDS) for 20 minutes at room temperature, followed by a 20-minute wash at 65° C. Autoradiography was performed at −70° C. Blots were probed with β-actin to confirm equal loading. Appropriate bands were quantified by densitometry.
# (§4) Northern blot analyses were performed on keratinocytes maintained in low calcium (0.03 mM) and incubated for 24 hours in the presence of vehicle alone (<0.1% ethanol) or vehicle containing 25-hydroxycholesterol (10 μM), 22(R)-hydroxycholesterol (10 μM) cholesterol (10 μM), or mevalonate (500 μM) (individually). The mRNA levels of involucrin (“INV”) and transglutaminase (“TG'ase”) are shown in the bar graph of FIG. 14a, the INV indicated by clear bars and the TG'ase by shaded bars, both with error limits shown.
# [2] = system: involucrin mRNA; experiment: Involucrin mRNA in keratinocytes by Northern Blot; type: cell-based, Human
# [3] = system: transglutaminase mRNA; experiment: Transglutaminase mRNA in keratinocytes by Northern Blot; type: cell-based, Human; remark: listed apart in the source
# [4] = system: full-thickness flank skin from the fetal rats; experiment: Transepidermal water loss (TEWL) of fetal rat skin explants in organ culture (barrier function); type: cell-based, Sprague-Dawley rats
# Experimental: Timed pregnant Sprague-Dawley rats (plug date=day 0) were obtained from Simonsen (Gilroy, Calif., USA) and fetuses were delivered prematurely on day 17. Transepidermal water loss (TEWL) was measured in excised full-thickness flank skin from the fetal rats after various times in culture. The skin explants were placed dermis-side down onto collagen membrane inserts (3μ pore size) in medium M-199 (serum-free), and submerged, and the lateral edges and dermal surface were sealed with petrolatum, such that water loss occurred only through the epidermal surface. Explant samples were weighed hourly, at ambient temperature (24±3° C.) and humidity (40±5%), over 6 hours using a Cahn balance (sensitivity 0.001 mg). TEWL levels are reported as milligrams of water lost per square millimeter of epidermal surface per hour. Fatty acids and clofibrate (p-chlorophenoxyisobutyric acid) were added to the medium bound to 0.5% (weight/volume) bovine serum albumin (BSA). Isoprenoids and oxysterols were added in ethanol (≦0.1%) and juvenile hormone III was added as a dimethylsulfoxide (DMSO) solution (≦0.1%). Control explants were incubated in the presence of the appropriate vehicle (≦0.1% DMSO or ethanol, and/or ≦0.5% BSA). Skin explants from gestational day 17 rats were incubated in the presence of either various activators or vehicle, and transepidermal water loss was measured after two days. The activators and the concentrations at which they were used were as follows: […]
# [5] = system: involucrin mRNA; experiment: Involucrin mRNA in keratinocytes by Northern Blot; type: cell-based, Human; remark: listed apart in the source
# Experimental: as §1, §2, §3, §4
# [6] = system: involucrin protein; experiment: Involucrin protein level in keratinocytes by Western Blot; type: cell-based, Human
# Experimental: Measurements of the level of the involucrin protein itself were performed in the culture medium by Western Blot. Various incubations were performed, in media containing clofibrate at concentrations ranging from 0 (vehicle only) to 400 μM and calcium ion at both 0.03 mM and 1.2 mM. The results are shown in FIG. 9a for tests with calcium ion at 0.03 mM, and in FIG. 9b for tests with calcium ion at 1.2 mM. In these figures, the protein contents are expressed as percents of the respective measurements taken from media incubated for the same period of time but in the absence of clofibrate.
# The procedures of Example 8 were followed, and measurements were taken on the involucrin protein levels from cells incubated at various concentrations of farnesol and juvenile hormone III ranging from 0 (vehicle only) to 15 μM, in media containing 0.03 mM and 1.2 mM calcium ion, for 24 hours. The results are shown in FIG. 10 for farnesol and FIG. 11 for juvenile hormone III, in 0.03 mM Ca^++.
# Protein concentration was assessed by protein electrophoresis and Western blotting. Cells were lysed is 2% SDS and the lysate sonicated. Protein determinations were made by use of a Bicinchoninic add protein assay (Pierce Chemical Company, Rockford, Ill. USA). Following protein determination, equal amounts at protein (50 μg) were separated by electrophoresis an 7.5% polyacrylamide gels and electroblotted onto polyvinylidene […] membranes (0.2-μ, obtained from Bio-Rad Laboratories Hercules, Calif., USA). Involucrin protein was detected by incubation over-night at 4° C. C. with a polyclonal rabbit anti-human involucrin antibody (1:1000 dilution). The involucrin-specific bands on the autoradiograms were quantitated by densitometry by densitometry. Transglutaminase protein expression was measured in a similar mmaner, using stacking, sample and running buffers containing 4 M urea, and the gels following electrophoresis were washed in 4 M urea, 25 mM TRIS-HCl, pH 7.4, 7.5 mM NaCl, 0.1 mM dithiothreitol (DTT), and 2 mM ethylenediamine tetraacetic acid for 90 minutes prior to electoblotting, allowing the transglutaminase to be detected by antibody. Specific bands on the autoradiograms were quantified by densitometry.
# [7] = system: Normal human keratinocytes; experiment: Cornified envelope formation (35S incorporation) in keratinocytes; type: cell-based; details: 48 hours; for increase in cornified envelope (CE) formation: 10 μM; for Cornified Envelope Formation (% of Control): control = 0.03 mM Ca++ vehicle, mean ± SEM
# [8] = 10 μM alone, 24 hours (Example 17)
# [9] = low calcium (0.03 mM), 24 hours, 10 μM
# [10] = 10 μM in the presence of mevalonate (10 μM), 24 hours
# [11] = 24 hours, 0 to 400 μM, in either 0.03 mM or 1.2 mM Ca++
# [12] = 1.2 mM Ca++, 400 μM, all time points relative to the controls
smiles,measurement,setting,value
C[C@H](CCCC(C)(C)O)[C@H]1CC[C@H]2[C@@H]3CC=C4C[C@@H](O)CC[C@]4(C)[C@H]3CC[C@]12C [25-hydroxycholesterol],TG'ase mRNA level,[1]; [8],two-fold increase
same,transglutaminase (TG'ase) mRNA level compared to the vehicle alone,[1]; [9],approximate twofold increase
same,INV mRNA level,[2]; [10],two-fold increase
same,TG'ase mRNA level,[3]; [10],two-fold increase
same,effect on TEWL / barrier function,"[4]; 50 μM, two days","neither mevalonate at 200 μM, 25-hydroxy cholesterol at 50 μM), squalene at 50 μM, geranylgeraniol at 50 μM, cis-farnesol at 50 μM, nor nerolidol at 100 μM significantly affected barrier function"
same,INV mRNA level,[5]; [8],two-fold increase
same,involucrin (INV) mRNA level compared to the vehicle alone,[5]; [9],approximate twofold increase
same,increase in INV protein,"[6]; high calcium (1.2 mM), 15 μM",3.2 fold
same,INV protein level relative to the control,"[6]; low calcium (0.03 mM), 24 hours",approximately 1.7 fold
same,increase in cornified envelope (CE) formation,[7]; high calcium (1.2 mM),1.75 fold
same,increase in cornified envelope (CE) formation,[7]; low calcium (0.03 mM),1.6 fold
"CCOC(=O)C(C)(C)Oc1ccc(Cl)cc1 [clofibrate, 2-(4-chlorophenoxy)-2-methylpropanoic acid ethyl ester]",transglutaminase mRNA level,"[1]; 0.03 mM Ca++, 400 μM, 0-48 hours, increase beginning at twelve hours",significantly increased levels
same,dose dependency of transglutaminase mRNA level,[1]; [11],increase with increasing dosages
same,involucrin mRNA level,[2]; [12],increased mRNA levels
same,transglutaminase mRNA level,[3]; [12],increased mRNA levels
same,EC50,"[4]; Rattus norvegicus, dose response, FIGS. 4a-4c, read-out: concentration of half-maximal effect on barrier development (TEWL)",~250 µM
same,concentration of maximal effect on barrier development (TEWL),"[4]; dose response, FIGS. 4a-4c",approximately 500 μM
same,involucrin mRNA level,"[5]; 0.03 mM Ca++, 400 μM, 0-48 hours, increase beginning at six hours",significantly increased levels
same,dose dependency of involucrin mRNA level,[5]; [11],increase with increasing dosages
same,involucrin protein content,"[6]; 0 to 400 μM, calcium ion at both 0.03 mM and 1.2 mM",substantial increases in the protein content
same,Cornified Envelope Formation (% of Control),"[7]; Calcium 0.03 mM, Clofibrate 50 μM",121.4% ± 15.7 % of Control
same,Cornified Envelope Formation (% of Control),"[7]; Calcium 0.03 mM, Clofibrate 200 μM",321.3% ± 30.4 % of Control
same,Cornified Envelope Formation (% of Control),"[7]; Calcium 0.03 mM, Clofibrate 400 μM",386.8% ± 28.7 % of Control
same,Cornified Envelope Formation (% of Control),"[7]; Calcium 1.2 mM, Clofibrate 50 μM",458.9% ± 39.8 % of Control
same,Cornified Envelope Formation (% of Control),"[7]; Calcium 1.2 mM, Clofibrate 200 μM",529.3% ± 17.4 % of Control
same,Cornified Envelope Formation (% of Control),"[7]; Calcium 1.2 mM, Clofibrate 400 μM",581.9% ± 28.7 % of Control
